Laboratory results: ChEMBL document CHEMBL5726363, “Indoline compounds as aldosterone synthase inhibitors” (2017)

Molecular target: T1, Cytochrome P450 11B2, mitochondrial (Homo sapiens, UniProt P19099)
T1 sequence (P19099 whole entry): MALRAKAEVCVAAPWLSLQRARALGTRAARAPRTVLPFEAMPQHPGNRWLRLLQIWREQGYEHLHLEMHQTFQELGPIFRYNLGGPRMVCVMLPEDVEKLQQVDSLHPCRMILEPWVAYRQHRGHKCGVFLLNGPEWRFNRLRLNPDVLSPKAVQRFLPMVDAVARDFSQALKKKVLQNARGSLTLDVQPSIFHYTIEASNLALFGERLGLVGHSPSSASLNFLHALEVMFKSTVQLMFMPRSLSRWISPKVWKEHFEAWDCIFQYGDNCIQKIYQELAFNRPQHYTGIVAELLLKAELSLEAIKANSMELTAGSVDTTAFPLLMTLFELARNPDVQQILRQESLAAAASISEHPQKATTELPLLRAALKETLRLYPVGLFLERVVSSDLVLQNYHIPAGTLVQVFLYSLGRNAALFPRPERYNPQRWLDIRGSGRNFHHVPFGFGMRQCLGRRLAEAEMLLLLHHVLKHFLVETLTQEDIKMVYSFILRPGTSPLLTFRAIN
Assay: HTRF-Based Assay : V79 cell lines stably expressing the either the human CYP11B2 or the human CYP11B1 enzyme were generated using a standard transfection protocol. V79 cells were transfected with plasmids pTriEx3-Hygro-hCyp11B2 or pTriEx3-Hygro-hCyp11B1 using Lipofectamine2000 reagent. V79 cells that stably express the human CYP11B2 or human CYP11B1 enzyme were selected for and maintained in DMEM supplemented with 10% FBS and 400 μg/mL hygromycin for 2 weeks. Single cell clones were generated by infinite dilution in DMEM supplemented with 10% FBS and 400 μg/mL hygromycin until single colonies were obtained. Clones V79-hCYP11B2-CLE9 and V79-hCYP11B1-CL8C7, were determined to produce the most aldosterone and cortisol, respectively, and were selected for inhibitor screening. For testing of inhibitors, cells were harvested at 80% confluency with 0.05% Trypsan-EDTA, washed once in PBS, and reconstituted in DMEM+0.1% BSA media at a cell concentration of 600,000 cells/mL for the CYP11B2 assay and 280,000 cells/mL for the CYP11B1 assay. 25 μL of cells were added to a 384 well tissue culture treated plate and mixed with 0.3 μL of inhibitor or DMSO (1% final DMSO concentration) for 1 hour at 37° C., 5% CO2. After pre-incubation with inhibitor, the reaction was initiated by adding 5 μL of substrate (final concentration of 125 nM 11-deoxycorticosterone for the CYP11B2 assay or 250 nM 11-deoxycortisol for the CYP11B1 assay). The reaction was carried out for 3 hours at 37° C., 5% CO2 and was stopped by harvesting the supernatants. The amount of product in the supernatant (aldosterone for CYP11B2 assay and cortisol for the CYP11B1 assay) was measured using HTRF-based assay kit (Aldosterone HTRF-CisBio#64ALDPEB, Cortisol HTRF-CisBio #63IDC002-CORT).

| Compound | IC50 [nM] |
| --- | --- |
| O=C(N1CCc2cc(-c3cncc(F)c3)cc(Cl)c21)C(F)(F)F | 10.6 |
| O=C(N1CCc2cc(-c3cncc(F)c3)cc(F)c21)C(F)(F)F | 17.4 |
| CC(=O)N1CCc2cc(-c3cncc(F)c3C)cc(Cl)c21 | 1.4 |
| CC(=O)N1CCc2cc(-c3cnccc3C)cc(F)c21 | 0.2 |
| CC(C)C(=O)N1CCc2cc(-c3cncc4ccccc34)ccc21 | 30 |
